According to US6593342B1, “Pharmaceutical compositions comprising 2-quinolones” (Laboratoire L. Lafon, priority 1998, dated 2003):

Tests used:
[1] = test system: lymphoma P 388; assay: In vivo antitumor activity, lymphoma P 388; parameters: species or system mouse; settings: Table IX; subcutaneous P 388 in CDF1 mice; compound 1 or 20 40 mg/kg 5/week from D5, 5 weeks; VCR 0.63 mg/kg 3/week from D5, 3 weeks
Experimental: 4.—In Vivo Antitumor Activity in Combination With a Cytotoxic Agent
The tests were carried out on models of:
in the presence or absence of cytotoxic agents such as cyclophosphamide, etoposide, doxorubicin or vincristine.
When the MTD value of a product was determined, its in vivo antitumor activity was characterized at doses of MTD/2, MTD/4 and MTD/8 on the model of mouse mammary adenocarcinoma HS-MXT and on the model of lymphoma P 388.
In all the examples presented below, irrespective of the model (mammary adenocarcinoma HS-MXT or lymphoma P 388), the control condition is represented by a batch of 9 mice to which is administered for 5 consecutive weeks and at a rate of 5 administrations (Monday, Tuesday, Wednesday, Thursday and Friday) per week a volume of 0.2 ml of physiological saline containing the solvent used to dissolve the various compounds of formulae (I) and (Ia) used.
i)—The survival rate of the mice
This survival rate was calculated in the form of a ratio T/C:
This ratio represents the average survival time of the median mouse from the batch of treated mice relative to the average survival time of the median mouse from the batch of control mice. Thus, a molecule induces a significant (P<0.05) increase in the survival of the animals when the index T/C exceeds 130%. Conversely, it has a toxic effect when this value of T/C is less than 70%.
4- to 6-week-old CDF1 mice are grafted with a piece of P 388 tumor (from a tumor bank maintained in the laboratory) subcutaneously into the right flank on day D0. In order to be under conditions close to clinical reality, we waited until the 5th day post-grafting (D5) before starting the treatment. The reason for this was that, after this period of time, the subcutaneous P 388 tumors are palpable.
Compound 1 is administered alone. The first injection of the product is carried out on the 5th day post-grafting (D5) at a rate of 5 injections per week (Monday, Tuesday, Wednesday, Thursday and Friday) for five consecutive weeks-and at a dose of 40 mg/kg.
Compound 20 is administered alone. […]

[2] = test system: clonogenic cells; assay: Clonogenic test, overall statement; format: cell-based; settings: in words
Text: 1—Interaction (Stimulation or Inhibition of Proliferation) With the Generation of Clonogenic Cells (Clonogenic Test)
The test used is that described by Hamburger et al. (Science, 1977; 197, 461-463) and Salmon et al. (New England J. Med., 298, 1321-1327). A cell is considered clonogenic if it has the capacity to proliferate and to give rise to a cell colony. “Human tumor stem cells” are the cells which are the source of the neoplastic cells which constitute a given tumor. These tumor stem cells are responsible for the relapse processes which may be observed after surgical resection of primary tumors and are also responsible for the formation of metastases. […]
The influence of the compounds of formulae (I) and (Ia) on the growth of the cell colonies obtained by culturing, for example, the mammalian tumor lines MCF7 and MXT and the colorectal line HT-29 on the semi-liquid culture medium known as “soft agar” was measured. […]
The tumor cell lines studied are maintained in culture in 25 cm^2 falcon dishes. […] The percentage of live cells is determined after staining with trypan blue. […] After fixing for 24 hours, the formalin is evaporated off and the number of stained cell colonies, thus consisting of metabolically active cells, and whose surface area is greater than 100 μm^2, is determined using an inverted microscope. […]

Row | Structure (SMILES) | T/C (survival) [1] [%] | effect on the average number of clones of clonogenic cells relative to the reference situation [2]
1 | COc1ccc(-c2cc3c(OC)cc(OC)cc3[nH]c2=O)cc1 [CRL8246, 5,7-Dimethoxy-3-(4-methoxyphenyl)-1,2-dihydro-2-quinolinone] | 120 | 
2 | COc1ccc(-c2cc3c(OC)cc(OC)cc3n(CCC#N)c2=O)cc1 [CRL8247, 3-[5,7-Dimethoxy-3-(4-methoxyphenyl)-2-oxo-1,2-dihydro-1-quinolinyl]propanenitrile] | 125 | 
3 | CCN(CC)C(=O)CCn1c(=O)c(-c2ccc(OC)cc2)cc2c(OC)cc(OC)cc21 [CRL8283, N,N-Diethyl-3-[5,7-dimethoxy-3-(4-methoxy-phenyl)-2-oxo-1,2-dihydro-1-quinolinyl]propanamide] |  | reduce
4 | CCN(CC)C(=O)Cn1c(=O)c(-c2ccc(OC)cc2)cc2c(OC)cc(OC)cc21 [CRL8315, N,N-Diethyl-2-[5,7-dimethoxy-3-(4-methoxy-phenyl)-2-oxo-1,2-dihydro-1-quinolinyl]acetamide] |  | increase
